In patent publication US20190055231A1, “BACE1 INHIBITORS” (Hoffmann-La Roche Inc., priority 2016, published 2019):
pIC50: −log10 of the molar value.

Columns and labels:
BACE1 [1] = molecular target: T1, BACE1 (Homo sapiens, UniProt P56817); assay: BACE1 cell-free assay (BACE1 enzyme assay); type: biochemical
From the text: BACE1 Cell-Free Assay (BACE1 Enzyme Assay)
(§1) The determination of BACE1 activity can be either measured by using an enzymatic cell-free fluorescence assay (BACE1 cell free, table 2) or by a whole cell assay using HEK293 APP cells (Cellular Aβ-lowering, table 2). Both assays are suitable to determine BACE1 inhibition.

hERG channel = hERG channel (Homo sapiens, UniProt Q12809); assay: hERG IC20 assay; type: cell-based; conditions: human, hERG IC20 assay
Chain of hERG channel (Q12809 whole entry): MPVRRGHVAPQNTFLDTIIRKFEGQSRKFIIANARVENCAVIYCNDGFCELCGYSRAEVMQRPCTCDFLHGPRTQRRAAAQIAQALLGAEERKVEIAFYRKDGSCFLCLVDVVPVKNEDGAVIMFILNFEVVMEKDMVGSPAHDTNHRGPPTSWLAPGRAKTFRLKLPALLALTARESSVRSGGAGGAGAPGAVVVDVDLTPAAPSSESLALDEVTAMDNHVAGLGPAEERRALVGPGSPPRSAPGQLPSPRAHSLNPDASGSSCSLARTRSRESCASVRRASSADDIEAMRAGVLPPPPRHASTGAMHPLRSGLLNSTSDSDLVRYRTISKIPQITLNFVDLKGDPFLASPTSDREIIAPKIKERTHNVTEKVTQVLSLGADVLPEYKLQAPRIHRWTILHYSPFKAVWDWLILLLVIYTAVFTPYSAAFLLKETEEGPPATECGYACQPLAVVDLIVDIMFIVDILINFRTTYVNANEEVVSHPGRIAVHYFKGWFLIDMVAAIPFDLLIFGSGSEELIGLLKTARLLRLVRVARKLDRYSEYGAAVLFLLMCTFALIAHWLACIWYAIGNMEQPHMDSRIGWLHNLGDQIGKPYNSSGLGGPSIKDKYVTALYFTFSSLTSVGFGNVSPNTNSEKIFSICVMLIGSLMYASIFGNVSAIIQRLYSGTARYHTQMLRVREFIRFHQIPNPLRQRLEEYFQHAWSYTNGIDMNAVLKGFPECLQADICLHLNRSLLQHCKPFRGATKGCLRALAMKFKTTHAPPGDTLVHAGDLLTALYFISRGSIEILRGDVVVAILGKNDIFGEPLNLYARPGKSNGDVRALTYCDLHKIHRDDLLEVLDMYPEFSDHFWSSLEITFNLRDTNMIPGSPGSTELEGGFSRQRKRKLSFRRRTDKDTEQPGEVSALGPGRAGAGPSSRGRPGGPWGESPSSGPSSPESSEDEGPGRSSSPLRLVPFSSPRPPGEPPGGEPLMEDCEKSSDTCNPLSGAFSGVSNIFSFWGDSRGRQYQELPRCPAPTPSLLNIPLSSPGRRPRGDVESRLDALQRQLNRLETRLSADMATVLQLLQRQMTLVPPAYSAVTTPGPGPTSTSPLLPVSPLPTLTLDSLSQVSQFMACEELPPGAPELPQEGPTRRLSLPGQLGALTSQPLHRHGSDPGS
From the text: The methods to determine the hERG IC20 values was described in Industrializing electrophysiology: HT automated patch clamp on SyncroPatch® 96 using instant frozen cells. Polonchuk L., Methods Mol Biol. 2014; 1183:81-92. (doi: 10.1007/978-1-4939-1096-0_5.) PMID:25023303
QT prolongation is a cardiovascular risk caused by drug candidates which inhibit the hERG channel (human ether a go-go). A sufficient safety margin between the hERG IC20 value and the free plasma concentration necessary to achieve the envisaged thereapeutic effects is desired (ICH. The nonclinical evaluation of the potential for delayed ventricular repolarization (QT interval prolongation) by human pharmaceuticals (S7B), issued as CPMP/ICH/423/02, adopted by CHMP in May 2005 (http://www.ich.org/cache/compo/276-254-1.html; Redfern W S, Carlsson L, Davis A S, Lynch W G, MacKenzie I, Palethorpe S, Siegl P K, Strang I, Sullivan A T, Wallis R, Camm A J, Hammond T G. Relationships between preclinical cardiac electrophysiology, clinical QT interval prolongation and torsade de pointes for a broad range of drugs: evidence for a provisional safety margin in drug development. Cardiovasc Res. 2003 Apr. 1; 58(1):32-45.)). Reducing the activity against efflux transporters expressed at the blood-brain-barrier such as P-glycoprotein P-gp, might result in reduction of the free plasma concentration by optimizing brain penetration.

[2] = Cynomolgus monkey single dose PK study; type: in vivo, Cynomolgus monkey (Macacaca fascicularis)
From the text: (§2) Cynomolgus Monkey (Macacaca fascicularis) Single Dose PK Study and Plasma Aβ40 Determination
(§3) Blood and plasma collection will always be performed in the treatment cage. The animal care keeper grabs either one arm or one leg through the bars. The hairs are shaved for better visibility of the vein. The blood vessel is squeezed, the vein is punctured by using a butterfly and blood is taken. Once enough blood has been withdrawn a cotton swab is placed over the injection site and the needle is gently removed. Bleeding is stopped by pressing a cotton swab on the wound. Plasma samples were taken between 5 min and 48 h.
Plasma Preparation Cynomolgus
(§4) Blood is transferred into a labeled EDTA-K2 Eppendorf tube and the sample is mixed by inverting the tubes several times. Blood is stored at −20° C.

Plasma Aβ40 = assay: Cynomolgus monkey plasma Aβ40 determination; type: in vivo, Cynomolgus monkey (Macacaca fascicularis)
From the text: as §2, §3, §4
Aβ determination in cynomolgous plasma samples was done after solid phase extraction (Lanz, T. et al., J. of Neuroscience Methods, 2006, 157:71-81). Frozen plasma samples were thawed in a 25° C. waterbath. […] Once samples were dried, they were stored at −80° C. or measured immediately. […]
Aβ concentration was determined following a modified protocol from Perkin-Elmer with a commercially available antibody against the N-terminal part of cynomolgus Aβ (6E10, Signet IG-39340) and an in-house C-terminal specific anti-Aβ40 antibody (BAP-24, Brockhaus M. et al., J. Neuroreport, 1998, 9:1481-1486). […]

BACE1 [3] = molecular target: T1, BACE1; assay: Cellular Aβ-lowering assay (Abeta 40 AlphaLISA, HEK293 APP cells); type: cell-based; parameters: endogenous in cells; host or cells: HEK293 APP cells; conditions: HEK293 APP cells, Aβ40 in supernatant; read-out: BACE1 cell act. Aβ40 IC50
Experimental: Cellular Aβ-Lowering Assay:
The Abeta 40 AlphaLISA Assay can be used. The HEK293 APP cells were seeded in 96 well Microtiter plates in cell culture medium (Iscove's, plus 10% (v/v) fetal bovine serum, penicillin/streptomycin) to about 80% confluency and the compounds were added at a 3× concentration in ⅓ volume of culture medium (final DMSO concentration was kept at 1% v/v). After 18-20 hrs incubation at 37° C. and 5% CO2 in a humidified incubator, the culture supernatants were harvested for the determination of AP 40 concentrations using Perkin-Elmer Human Amyloid beta 1-40 (high specificity) Kit (Cat#AL275C).
In a Perkin-Elmer White Optiplate-384 (Cat#6007290), 2 ul culture supernatants were combined with 2 μl of a 10× AlphaLISA Anti-hAP Acceptor beads+Biotinylated Antibody Anti-Aβ 1-40 Mix (50 μg/mL/5 nM). After 1 hour room temperature incubation, 16 μl of a 1.25× preparation of Streptavidin (SA) Donor beads (25 μg/mL) were added and incubated for 30 minutes in the Dark. Light Emission at 615 nm was then recorded using EnVision-Alpha Reader. Levels of AP 40 in the culture supernatants were calculated as percentage of maximum signal (cells treated with 1% DMSO without inhibitor). The IC50 value were calculated using the Excel XLfit software.
Cellular Aβ-Lowering Assay (Cell-Based Assay)
as §1

T1 sequence (P56817 46-501): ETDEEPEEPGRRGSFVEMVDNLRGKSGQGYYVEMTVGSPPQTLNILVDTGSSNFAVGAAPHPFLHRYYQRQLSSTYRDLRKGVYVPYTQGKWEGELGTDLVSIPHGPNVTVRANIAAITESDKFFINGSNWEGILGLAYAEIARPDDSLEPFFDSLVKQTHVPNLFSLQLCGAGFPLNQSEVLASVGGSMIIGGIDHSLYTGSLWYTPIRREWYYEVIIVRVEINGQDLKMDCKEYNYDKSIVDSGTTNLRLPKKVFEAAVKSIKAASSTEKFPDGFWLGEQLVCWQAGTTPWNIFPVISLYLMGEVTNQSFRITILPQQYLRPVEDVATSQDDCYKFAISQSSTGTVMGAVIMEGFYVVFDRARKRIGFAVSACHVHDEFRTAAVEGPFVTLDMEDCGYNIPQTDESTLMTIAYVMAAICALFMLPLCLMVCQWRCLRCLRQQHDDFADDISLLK

Cc1cc(C#N)cnc1C(=O)Nc1ccc(F)c([C@@]2(C)N=C(N)O[C@H](C(F)(F)F)[C@@H]2F)n1 [Example 1, N-(6-((4R,5R,6S)-2-amino-5-fluoro-4-methyl-6-(trifluoromethyl)-5,6-dihydro-4H-1,3-oxazin-4-yl)-5-fluoropyridin-2-yl)-5-cyano-3-methylpicolinamide]
pIC50 (BACE1 [1]): 7.44
IC20 (hERG channel; instant frozen cells (hERG channel; cell line not named)): > 1000 nM
IC20 (hERG channel): > 1000 nM
AUC(0-24)/D p.o. ([2]; p.o., dose normalized): 4160 kg·ng·h/mL/mg
clearance ([2]; plasma): 2.1 mL/min/kg
bioavailability ([2]; plasma, po, read-out: Oral Bioavailability F): 52%
half-life ([2]; plasma, po, read-out: t1/2 p.o. (converted)): 19 h
Plasma Aβ-lowering 0.2 mg/kg at 24 h (Plasma Aβ40; 24 h post dose): 57%
Plasma Aβ-lowering 0.2 mg/kg at 48 h (Plasma Aβ40; 48 h post dose): 50%
pIC50 (BACE1 [3]): 7.82
